Laboratory results as given in patent US11413261B2, “Pharmaceutical composition for treating cancer comprising lactate metal salt” (METIMEDI PHARMACEUTICALS CO., LTD, priority 2014, dated 2022).

Tests used:
[1] = Structure and binding energy analysis of metal lactate salts; format: physicochemical; conditions: as compared to sodium lactate and potassium lactate (FIG. 1)
From the text: Calcium carbonate, sodium carbonate, or potassium carbonate was reacted with lactate so as to obtain metal lactate salt (calcium lactate, sodium lactate, or potassium lactate) solutions, respectively. Each of them was filtered, dried, and pulverized so as to obtain metal lactate salt (calcium lactate, sodium lactate, or potassium lactate) in the form of powder. Then, the structure and binding energy of the obtained metal lactate salts (calcium lactate, sodium lactate, or potassium lactate) were analyzed (FIG. 1).

[2] = test system: human colorectal cancer cell lines (HCT-116 and HT-29); test: Lactate level in cancer cells (lactate assay kit); format: cell-based; conditions: 2.5 mM, medium with 3 mM or 11 mM glucose, vs untreated
Protocol: The cells cultured in Example 2-1 were cultured again in a medium including 3 mM (low) or 11 mM (normal) glucose. The cultured cells were disrupted by ultrasonication. The concentration of lactate included in the disrupted cells was measured using a lactate assay kit (AbCam, Cambridge, Mass.) (FIG. 3). In this case, cancer cells untreated with calcium lactate were used as control groups.

β-catenin [3] = test: β-catenin mRNA (RT-PCR) and protein (Western blot) expression in colorectal cancer cell lines; format: cell-based, human; conditions: HCT-116, HT-29, DLD-1
Protocol: Human colorectal cancer cell lines (HCT-116, HT-29, and DLD-1) were cultured by the same method as that of Example 2-1 except that they were treated with 0 mM, 1.5 mM, or 2.5 mM calcium lactate, and the cultured cancer cells were obtained. Then, expression levels of […] depending on the concentration of calcium lactate were compared at the expression levels of mRNA and protein included therein.
Firstly, in order to compare mRNA expression levels, the total RNA was extracted from each of the cancer cells using an RNeasy mini kit and cDNA was synthesized using a reverse transcriptase. The gene of β-catenin was obtained through reverse transcriptase PCR using the synthesized cDNA as a template and the primers described below.
Then, in order to compare protein expression levels, each of the cancer cells was disrupted and electrophoresis was performed thereto. Then, a Western blot using anti-β-catenin antibody as a primary antibody and an anti-rabbit IgG conjugate as a secondary antibody was conducted (lower part of FIG. 5) and the blots were analyzed with the Image-J program. In this case, actin was used as internal control groups.

β-catenin [4] = test: β-catenin and activated β-catenin protein expression in breast cancer cell lines; format: cell-based, human; conditions: MCF-7 and MDA-MB-231; with increasing concentration
Protocol: Using the same method as that of Example 3-1 the expression levels of β-catenin and activated β-catenin depending on the concentration of calcium lactate were compared at the protein expression level (FIG. 6) with a human breast cancer cell line (MCF-7) cultured in a cancer cell culture medium (RPMI1640 medium including 10% FBS and 1% penicillin/streptomycin) at 37° C. with 5% CO2 and a human breast cancer cell line (MDA-MB-231) cultured in another cancer cell culture medium (DMEM medium including 10% FBS and 1% penicillin/streptomycin) at 37° C. with 5% CO2.

GLUT 1 and HK2 = GLUT 1 and HK2 expression under hypoxia (real-time PCR, Western blot); format: cell-based, human; conditions: HCT-116 and HT-29; hypoxia condition
Protocol: Human colorectal cancer cell lines (HCT-116 and HT-29) were cultured under normoxia or hypoxia condition. The cell lines cultured under the hypoxia condition were treated with calcium lactate, and then, expression levels of GLUT 1 and HK2 in each of the cultured cell lines were compared at the mRNA and protein expression levels (FIG. 7).

cancer cell lines = test: α-KG level in cancer cells (α-Ketoglutarate assay kit); format: cell-based; conditions: normal medium or glutamine-free medium; 2.5 mM, 24 hours
Protocol: Cancer cell lines with the cell number of 5×10^5 cells cultured in a normal medium or a glutamine-free medium were treated with 2.5 mM calcium lactate for 24 hours and the cells were disrupted by ultrasonication and filtered using a 10 kDa filter so as to obtain filtrate. The obtained filtrate was applied to an α-Ketoglutarate assay kit (BioVision, Exton, Pa.) to measure the concentration of α-KG included in the filtrate (FIGS. 14a and 14b).

[5] = test system: colorectal cancer cell line HCT-116; test: Cell migration of colorectal cancer cell line (culture insert); format: cell-based; conditions: 2.5 mM, 24 hours, then 12 hours after insert removal
Protocol: (§1) A colorectal cancer cell line HCT-116 with the cell number of 4×10^5 cells was inoculated into a culture container at the center of which an ibidi culture insert having a thickness of 500 μm was placed, and treated with 2.5 mM calcium lactate and then cultured for 24 hours. Then, the insert was removed and further cultured for 12 hours to analyze migration of the cancer cells to a site where the insert was removed using a JuLi Br, Live cell analyzer (NanoEnTek Inc., South Korea) (FIG. 18). In this case, a colorectal cancer cell line cultured without treating with calcium lactate was used as a control group.

[6] = test system: breast cancer cell lines (MCF-7 and MDA-MB231); test: Cell migration of breast cancer cell lines; format: cell-based; conditions: 2.5 mM, vs untreated
Protocol: as §1
Using the same method as Example 8-1, with breast cancer cell lines (MCF-7 and MDA-MB231) instead of the colorectal cancer cell line, an effect of calcium lactate on migration of the breast cancer cell lines was examined (FIG. 19).

[7] = test system: human colorectal cancer cell lines (HT-29 and HCT-116); test: Colony-forming ability, anticancer drug in combination with calcium lactate (6-well plates); format: cell-based; conditions: 2.5 mM calcium lactate alone, vs control
Protocol: Human colorectal cancer cell lines (HT-29 and HCT-116) with the cell number of 1×10^3 cells were seeded into an RPMI1640 medium in each of 6-well plates. After one day, the medium was replaced with fresh medium and the cells were treated with 2.5 mM calcium lactate or 1 μM, 2.5 μM, and 5 μM Imatinib alone or treated with various concentrations (1 μM, 2.5 μM, and 5 μM) of Imatinib in combination with 2.5 mM calcium lactate. Then, the colony-forming abilities of the cells were compared. In this case, human colorectal cancer cell lines (HT-29 and HCT-116) untreated with any drug were used as control groups (FIGS. 38a, 38b, 39a and 39b).
Human colorectal cancer cell lines (HT-29 and HCT-116) with the cell number of 1×10^3 cells were seeded into an RPMI1640 medium in each of 6-well plates. After one day, the medium was replaced with fresh medium and the cells were treated with 2.5 mM calcium lactate or 2.5 μM, 5 μM, and 10 μM 5-FU alone or treated with various concentrations (2.5 μM, 5 μM, and 10 μM) of 5-FU in combination with 2.5 mM calcium lactate. Then, the colony-forming abilities of the cells were compared. In this case, human colorectal cancer cell lines (HT-29 and HCT-116) untreated with any drug were used as control groups (FIGS. 40a, 40 b, 41a and 41b).

[8] = test system: human breast cancer cell line (MCF-7) showing a resistance to Trastuzumab; test: Colony-forming ability, Trastuzumab in combination with calcium lactate (6-well plates); format: cell-based; conditions: Trastuzumab-resistant MCF-7; 2.5 mM calcium lactate alone; vs control
From the text: Then, the colony-forming abilities of the cells were compared. In this case, a human breast cancer cell line (MCF-7) untreated with any drug was used as a control group (FIGS. 54a and 54b).

CC(O)C(=O)[O-].CC(O)C(=O)[O-].[Ca+2] (stereo not drawn) [calcium lactate]
binding energy [1]: relatively high binding energy
concentration of lactate in cancer cells [2]: increased
mRNA expression levels of β-catenin (β-catenin [3]; 0, 1.5, 2.5 mM): no difference
protein expression levels of β-catenin (β-catenin [3]; with increasing concentration (0, 1.5, 2.5 mM)): decreased
protein expression levels of activated β-catenin (β-catenin [4]): decreased
protein expression levels of β-catenin (β-catenin [4]): decreased
expression levels of GLUT 1 and HK2 (activation of glycolysis) (GLUT 1 and HK2): reduced
α-KG levels in the cells (cancer cell lines): sharply increased
cell migration [5]: decreased
cell migration (metastatic capacity) [6]: relatively low levels of metastasis
colony-forming ability [7]: suppressed
colony-forming ability [8]: decreased
